Measured values as given in patent US5596009A, “Fused benzeneoxyacetic acid derivatives” (Ono Pharmaceutical Co., Ltd., priority 1991, dated 1997).

What was measured:
[1] = biological target: T1, PGl2 receptor (Homo sapiens, UniProt P43119); test: Inhibitory activity on binding of ^3 H-iloprost to PGl2 receptor on human blood platelet membrane fraction; conditions: human blood platelet membrane fraction (0.3 mg protein), 10 nM [^3 H]-iloprost, pH 7.4, 24° C., 30 min; read-out: IC50 (inhibition of [^3 H]-iloprost binding to PGl2 receptor)
T1 construct: human blood platelet membrane fraction (0.3 mg protein) was added; from tissue; host or cells: human blood platelets (membrane fraction)
T1 sequence (P43119 whole entry): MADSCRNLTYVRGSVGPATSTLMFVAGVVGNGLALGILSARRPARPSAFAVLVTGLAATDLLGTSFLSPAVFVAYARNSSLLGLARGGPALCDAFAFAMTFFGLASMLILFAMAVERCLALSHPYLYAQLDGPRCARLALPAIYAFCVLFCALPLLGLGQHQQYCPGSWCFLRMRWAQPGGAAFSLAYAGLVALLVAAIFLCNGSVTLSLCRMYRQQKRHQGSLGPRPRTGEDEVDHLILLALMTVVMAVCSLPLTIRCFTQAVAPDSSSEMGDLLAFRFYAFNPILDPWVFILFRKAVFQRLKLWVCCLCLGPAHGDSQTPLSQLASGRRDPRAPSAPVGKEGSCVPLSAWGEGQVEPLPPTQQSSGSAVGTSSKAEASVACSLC
Protocol: i) Inhibitory activity on binding of ^3 H-iloprost to PGl2 receptor on human blood platelet membrane fraction
50 mM Tris-HCl buffer (pH 7.4) containing 15 mM MgCl2, 5 mM EDTA and 10 nM [^3 H]-iloprost were used as reaction medium. To 0.2 ml of the reaction medium, human blood platelet membrane fraction (0.3 mg protein) was added with or without a test compound. The mixture was incubated at 24° C. for 30 min. After incubation, 4 ml of ice-cold 10 mM Tris-HCl buffer (pH 7.4) was added to the reaction mixture, and filtered through Whatman GF/B glass fiber filter, and washed 4 times with 4 ml of ice-cold 10 mM Tris-HCl buffer (pH 7.4) to separate bound and free [^3 H]-iloprost. After washing, the filter was dried and radioactivity was counted. Non-specific binding was obtained by performing parallel binding experiments in the presence of 10 μM non-labelled iloprost. Specific binding was calculated by subtracting the non-specific binding from the total binding.
The inhibitory effect of test compound was calculated from the following equation.
The percentage of inhibition (%)=100-(B1 /B0 ×100)
B1 : specific [^3 H]-iloprost binding in presence of test compound
B0 : specific [^3 H]-iloprost binding in absence of test compound

[2] = system: human blood platelet aggregation; test: Inhibitory effect on human blood platelet aggregation; assay type: cell-based; conditions: human platelet-rich plasma (5×10^5 platelets/mm^3), compound 1 min prior to ADP (4 μm); read-out: IC50 (inhibition of platelet aggregation)
Protocol: ii) Inhibitory effect on human blood platelet aggregation
Platelet-rich plasma (PRP) was prepared from human blood (5×10^5 platelets/mm^3), and a test compound was added to PRP 1 min prior to the addition of ADP (4 μm). The aggregation was monitored using a platelet aggregometer (NBS HEMA TRACER 601, Niko Bioscience, Japan).

SMILES	IC50 [1]	IC50 [2]
O=C(O)COc1cccc2c1CCC(CCC(=O)NN=C(c1ccccc1)c1ccccc1)C2 (centres unmarked) [3 (aa), [2-(2-(Diphenylmethylideneamino)aminocarbonylethyl)-1,2,3,4-tetrahydronaphthalen-5-yl]oxyacetic acid]	6000 nM	–
O=C(O)COc1cccc2c1CCCC2CCCC(=O)N(Cc1ccccc1)Cc1ccccc1 (centres unmarked) [3 (bb), [1-(3-(N,N-Dibenzylamino)carbonylpropyl)-1,2,3,4-tetrahydronaphthalen-5-yl]oxyacetic acid]	4100 nM	–
O=C(O)COc1cccc2c1CCCC2CCCC(=O)NC(c1ccccc1)c1ccccc1 (centres unmarked) [3 (cc), [1-(3-Diphenylmethylaminocarbonylpropyl)-1,2,3,4-tetrahydronaphthalen-5-yl]oxyacetic acid]	2700 nM	–
O=C(O)COc1cccc2c1CCCC2CCCC(=O)N(c1ccccc1)c1ccccc1 (centres unmarked) [3 (dd), [1-(3-(N,N-Diphenylamino)carbonylpropyl)-1,2,3,4-tetrahydronaphthalen-5-yl]oxyacetic acid]	1700 nM	5100 nM
O=C(O)COc1cccc2c1CCCC2CC(=O)NN(c1ccccc1)c1ccccc1 (centres unmarked) [3 (j), [1-((N,N-Diphenylamino)aminocarbonyimethyl)-1,2,3,4-tetrahydronaphthalen-5-yl]oxyacetic acid]	7600 nM	–
O=C(O)COc1cccc2c1CCCC2CCC(=O)N(Cc1ccccc1)c1ccccc1 (centres unmarked) [3 (l), [1-(2-(N-Benzyl-N-phenylamino)carbonylethyl)-1,2,3,4-tetrahydronaphthalen-5-yl]oxyacetic acid]	2900 nM	–
O=C(O)COc1cccc2c1CCCC2CCC(=O)N(Cc1ccccc1)Cc1ccccc1 (centres unmarked) [3 (m), [1-(2-Dibenzylaminocarbonylethyl)-1,2,3,4-tetrahydronaphthalen-5-yl]oxyacetic acid]	320 nM	–
O=C(O)COc1cccc2c1CCCC2CCC(=O)NC(c1ccccc1)c1ccccc1 (centres unmarked) [3 (o), [1-(2-Diphenylmethylaminocarbonylethyl)-1,2,3,4-tetrahydronaphthalen-5-yl]oxyacetic acid]	210 nM	400 nM
O=C(O)COc1cccc2c1CCCC2CCC(=O)NN(c1ccccc1)c1ccccc1 (centres unmarked) [3 (p), [1-(2-(N,N-Diphenylamino)aminocarbonylethyl)-1,2,3,4-tetrahydronaphthalen-5-yl]oxyacetic acid]	9.4 nM	110 nM
O=C(O)COc1cccc2c1CCCC2CCC(=O)NC(Cc1ccccc1)c1ccccc1 (centres unmarked) [3 (q), [1-(2-(1,2-Diphenylethyl)aminocarbonylethyl)-1,2,3,4-tetrahydronaphthalen-5-yl]oxyacetic acid]	6800 nM	–
O=C(O)COc1cccc2c1CCC(CC(=O)NC(c1ccccc1)c1ccccc1)C2 (centres unmarked) [3 (v), [2-(Diphenylmethylaminocarbonylmethyl)-1,2,3,4-tetrahydronaphthalen-5-yl]oxyacetic acid]	120 nM	1000 nM
O=C(O)COc1cccc2c1CCC(CC(=O)NN(c1ccccc1)c1ccccc1)C2 (centres unmarked) [3 (w), [2-((N,N-Diphenylamino)aminocarbonylmethyl)-1,2,3,4-tetrahydronaphthalen-5-yl]oxyacetic acid]	20 nM	620 nM
O=C(O)COc1cccc2c1CCC(CCC(=O)N(Cc1ccccc1)Cc1ccccc1)C2 (centres unmarked) [3 (x), [2-(2-(N,N-Dibenzylamino)carbonylethyl)-1,2,3,4-tetrahydronaphthalen-5-yl]oxyacetic acid]	2700 nM	–
O=C(O)COc1cccc2c1CCC(CCC(=O)NC(c1ccccc1)c1ccccc1)C2 (centres unmarked) [3 (y), [2-(2-(Diphenylmethylamino)carbonylethyl)-1,2,3,4-tetrahydronaphthalen-5-yl]oxyacetic acid]	1800 nM	7000 nM
O=C(O)COc1cccc2c1CCC(CCC(=O)NN(c1ccccc1)c1ccccc1)C2 (centres unmarked) [3 (z), [2-(2-(N,N-Diphenylamino)aminocarbonylethyl)-1,2,3,4-tetrahydronaphthalen-5-yl]oxyacetic acid]	100 nM	2300 nM
COC(=O)COc1cccc2c1CCC(CN(C)C(=O)CN(c1ccccc1)c1ccccc1)C2 (centres unmarked) [4 (a), Methyl [2-((N-methyl-N-(diphenylaminomethylcarbonyl)amino)methyl)-1,2,3,4-tetrahydronaphthalen-5-yl]oxyacetate]	2300 nM	–
CN(CC1CCc2c(cccc2OCC(=O)O)C1)C(=O)CN(Cc1ccccc1)c1ccccc1 (centres unmarked) [8 (b), [2-((N-Methyl-N-((N'-benzyl-N'-phenylamino)methylcarbonyl)amino)methyl)-1,2,3,4-tetrahydronaphthalen-5-yl]oxyacetic acid]	3100 nM	8000 nM
CCCN(CC1CCc2c(cccc2OCC(=O)O)C1)C(=O)CN(c1ccccc1)c1ccccc1 (centres unmarked) [8 (c), [2-((N-Propyl-N-(diphenylaminomethylcarbonyl)amino)methyl)-1,2,3,4-tetrahydronaphthalen-5-yl]oxyacetic acid]	180 nM	2500 nM
CCCN(CC1CCc2c(cccc2OCC(=O)O)C1)C(=O)CN(Cc1ccccc1)c1ccccc1 (centres unmarked) [8 (d), [2-((N-Propyl-N-((N'-benzyl-N'-phenylamino)methylcarbonyl)amino)methyl)-1,2,3,4-tetrahydronaphthalen-5-yl]oxyacetic acid]	1800 nM	5600 nM
CCCN(CCC1CCc2c(cccc2OCC(=O)O)C1)C(=O)CN(c1ccccc1)c1ccccc1 (centres unmarked) [10 (a), [2-(2-(N-Propyl-N-(diphenylaminomethylcarbonyl)amino)ethyl)-1,2,3,4-tetrahydronaphthalen-5-yl]oxyacetic acid]	480 nM	–
CCCN(CCC1CCc2c(cccc2OCC(=O)O)C1)C(=O)CN(Cc1ccccc1)c1ccccc1 (centres unmarked) [10 (b), [2-(2-(N-Propyl-N-((N'-benzyl-N'-phenylamino)methylcarbonyl)amino)ethyl)-1,2,3,4-tetrahydronaphthalen-5-yl]oxyacetic acid]	8400 nM	–
CN(CCC1CCc2c(cccc2OCC(=O)O)C1)C(=O)CN(c1ccccc1)c1ccccc1 (centres unmarked) [10 (c), [2-(2-(N-Methyl-N-(diphenylaminomethylcarbonyl)amino)ethyl)-1,2,3,4-tetrahydronaphthalen-5-yl]oxyacetic acid]	1300 nM	–
O=C(O)COc1cccc2c1CCCC2CCC(=O)N(c1ccccc1)c1ccccc1 (centres unmarked) [Example 3, [1-(2-Diphenylaminocarbonylethyl)-1,2,3,4-tetrahydronaphthalen-5-yl]oxyacetic acid]	680 nM	8300 nM
CN(CC1CCc2c(cccc2OCC(=O)O)C1)C(=O)NC(c1ccccc1)c1ccccc1 (centres unmarked) [Example 7, [2-(N-Methyl-N-(diphenylmethylaminocarbonyl)aminomethyl)-1,2,3,4-tetrahydronaphthalen-5-yl]oxyacetic acid]	6600 nM	–
